One data set concerns the target T1, DOR (Homo sapiens, UniProt P41143).
T1 construct: expressed in transfected cells; membrane homogenate
Put plainly: [35S]-GTPγS functional assay, DOR. It counts as biochemical. The settings on record: for EC50: hDOR-CHO membranes; for Emax: percent of SNC80 full agonist control. On the technique in general: Binding of GTPγS marks nucleotide exchange on a G protein.

A further data set relates to male Swiss Webster mice. Put plainly: Warm-water tail immersion assay, agonism (single dose screen and potency). It is filed as in vivo, mouse. The settings on record: for ED50: Mus musculus, sc, read-out: potency ED50 [95% CI] mg/kg, 20 min prior to tail withdrawal latency measurement, male Swiss Webster mice; for ED50 / ED75: s.c.; for ED75: warm-water tail immersion; for percent MPE: single dose 10 mg/kg s.c., withdrawal latency 20 min after administration.

The next data set deals with MOR (Mus musculus, UniProt P42866). The experiment in a line: Competitive radioligand binding assay, MOR. On the set-up: expressed in transfected cells; membrane homogenate. The settings on record: for radioligand binding affinity (Ki, nM) MOR: [3H]naloxone, mMOR-CHO membranes.
Another data set has as its target hERG (Kv11.1) (Homo sapiens, UniProt Q12809). The experiment in a line: Automated patch-clamp hERG inhibition assay in CHO-hERG cells.
Another data set deals with hERG (Homo sapiens, UniProt Q12809). Described as above.
hERG, sequence (Q12809 whole entry): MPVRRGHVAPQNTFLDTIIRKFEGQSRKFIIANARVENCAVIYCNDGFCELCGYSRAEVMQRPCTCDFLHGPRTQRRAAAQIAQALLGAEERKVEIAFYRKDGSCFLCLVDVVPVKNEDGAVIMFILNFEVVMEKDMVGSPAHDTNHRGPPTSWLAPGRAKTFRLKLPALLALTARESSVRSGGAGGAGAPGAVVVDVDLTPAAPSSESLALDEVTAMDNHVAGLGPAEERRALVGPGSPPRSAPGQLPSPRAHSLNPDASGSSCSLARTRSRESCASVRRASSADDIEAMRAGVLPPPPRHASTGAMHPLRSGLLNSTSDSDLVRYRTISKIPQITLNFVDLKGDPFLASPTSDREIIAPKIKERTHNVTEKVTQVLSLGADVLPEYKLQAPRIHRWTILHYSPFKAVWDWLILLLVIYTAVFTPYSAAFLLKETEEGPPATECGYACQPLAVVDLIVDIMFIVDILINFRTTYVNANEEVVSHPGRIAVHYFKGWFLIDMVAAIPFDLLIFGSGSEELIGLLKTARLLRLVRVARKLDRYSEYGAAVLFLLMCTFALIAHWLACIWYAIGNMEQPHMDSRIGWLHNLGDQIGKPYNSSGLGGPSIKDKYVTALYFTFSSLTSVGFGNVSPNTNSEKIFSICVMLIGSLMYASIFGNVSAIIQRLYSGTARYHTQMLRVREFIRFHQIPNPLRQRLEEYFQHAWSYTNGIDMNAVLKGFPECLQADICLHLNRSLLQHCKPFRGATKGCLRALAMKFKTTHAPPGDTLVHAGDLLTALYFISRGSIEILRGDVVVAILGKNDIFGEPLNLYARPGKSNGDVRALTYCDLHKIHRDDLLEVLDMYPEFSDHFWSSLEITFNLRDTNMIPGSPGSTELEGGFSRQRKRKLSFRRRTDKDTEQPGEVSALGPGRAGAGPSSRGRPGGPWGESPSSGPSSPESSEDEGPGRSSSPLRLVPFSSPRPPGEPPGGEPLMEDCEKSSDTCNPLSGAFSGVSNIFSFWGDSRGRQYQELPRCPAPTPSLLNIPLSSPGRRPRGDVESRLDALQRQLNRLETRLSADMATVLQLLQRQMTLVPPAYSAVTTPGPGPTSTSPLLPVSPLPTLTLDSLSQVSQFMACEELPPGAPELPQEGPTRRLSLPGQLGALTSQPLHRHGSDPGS

MOR, sequence (P42866 whole entry, looked up): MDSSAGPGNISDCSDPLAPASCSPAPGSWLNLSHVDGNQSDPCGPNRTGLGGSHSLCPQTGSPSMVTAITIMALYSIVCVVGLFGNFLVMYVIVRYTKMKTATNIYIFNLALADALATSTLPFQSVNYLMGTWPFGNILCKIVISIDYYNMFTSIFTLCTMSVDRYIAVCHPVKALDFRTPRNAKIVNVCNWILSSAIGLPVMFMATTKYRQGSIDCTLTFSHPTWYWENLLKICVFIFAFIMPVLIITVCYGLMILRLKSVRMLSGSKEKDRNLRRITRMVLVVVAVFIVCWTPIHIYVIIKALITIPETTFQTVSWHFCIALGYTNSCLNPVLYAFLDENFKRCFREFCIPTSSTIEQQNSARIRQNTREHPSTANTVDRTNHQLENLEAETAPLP
T1 sequence (P41143 whole entry): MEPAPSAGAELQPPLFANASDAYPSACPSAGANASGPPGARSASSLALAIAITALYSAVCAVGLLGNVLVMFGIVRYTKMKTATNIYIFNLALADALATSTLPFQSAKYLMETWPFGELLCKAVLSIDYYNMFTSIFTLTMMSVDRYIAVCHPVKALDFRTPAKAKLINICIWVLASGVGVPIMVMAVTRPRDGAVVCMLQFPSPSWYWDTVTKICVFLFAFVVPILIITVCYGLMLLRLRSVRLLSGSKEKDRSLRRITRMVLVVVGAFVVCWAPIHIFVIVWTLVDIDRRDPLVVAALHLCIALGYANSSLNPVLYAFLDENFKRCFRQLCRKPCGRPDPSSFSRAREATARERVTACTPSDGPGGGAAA
hERG (Kv11.1), sequence (Q12809 whole entry): as the sequence (Q12809 whole entry) above

On DOR, `CN(C(=O)/C=C/c1ccco1)[C@H]1CC[C@@]2(O)[C@H]3Cc4ccc(O)c5c4[C@@]2(CCN3CC2CC2)[C@H]1O5.Cl` [Compound 21, 17-Cyclopropylmethyl-3,14β-dihydroxy-4,5α-epoxy-6α-[(2E)-3′-(furan-2″-yl)-N-methylprop-2-enamido]morphinan Hydrochloride] had an EC50 of 1.28 ± 0.28 nM and an Emax of more than 80%. Also, in the data set on male Swiss Webster mice, the ED50 came out at 0.051 mg/kg, the ED75 was 0.1 mg/kg and the “percent MPE” value is not below 80%. Moreover, at MOR, the inhibitory constant (Ki) turned out to be 0.2 ± 0.02 nM and the “radioligand binding affinity (Ki, nM) MOR” value was “subnanomolar”. For the same compound, on hERG (Kv11.1), the half-inhibitory concentration (IC50) amounted to 2510 nM.

As for `CN(C(=O)/C=C/c1ccco1)[C@@H]1CC[C@@]2(O)[C@H]3Cc4ccc(O)c5c4[C@@]2(CCN3CC2CC2)[C@H]1O5.Cl` [Compound 23, 17-Cyclopropylmethyl-3,14β-dihydroxy-4,5α-epoxy-6β-[(2E)-3′-(furan-2″-yl)-N-methylprop-2-enamido]morphinan Hydrochloride], on DOR, the concentration for a half-maximal effect (EC50) stood at 16.4 ± 3.25 nM and the Emax is more than 80%. For the same compound, in the data set with male Swiss Webster mice, the ED50 came to 0.01 mg/kg, the ED75 was 0.05 mg/kg and the “percent MPE” value is not below 80%. Also, at MOR, the affinity corresponds to a Ki of 0.78 ± 0.05 nM and the “radioligand binding affinity (Ki, nM) MOR” value was “subnanomolar”. In addition, the IC50 against hERG is 1090 nM.

One may read the EC50 as the concentration needed to bring the measured effect to its halfway point. High values mean a less potent agent, low ones a more potent agent. Usually Emax stands for the maximal effect, on the per cent scale that the assay sets. The Ki is a measure of affinity in units of concentration, obtained from inhibition or displacement. Read a low Ki as higher affinity. The term IC50 denotes the point on the concentration scale where inhibition reaches its midpoint. Low readings indicate greater potency in that assay, high ones weaker potency in that assay.

Source of the values: publication PMC11181328 (Journal of Medicinal Chemistry, 2024).
